Test results taken from patent publication US20040077639A1, “Methods for the treatment of respiratory diseases and conditions using a selective iNOS inhibitor” (priority 2002, published 2004).
Entries after “also recorded” stand apart in the source; their conditions may differ. Where a name gives a salt, the structure may show the parent alone. Read-outs that look alike come from different tables or passages of the source.

Key:
i-NOS = i-NOS (Homo sapiens, UniProt P35228); experiment: Comparison of i-NOS inhibition with NIL amide and NIL dimethylamide; assay type: biochemical
Sequence of i-NOS (P35228 whole entry): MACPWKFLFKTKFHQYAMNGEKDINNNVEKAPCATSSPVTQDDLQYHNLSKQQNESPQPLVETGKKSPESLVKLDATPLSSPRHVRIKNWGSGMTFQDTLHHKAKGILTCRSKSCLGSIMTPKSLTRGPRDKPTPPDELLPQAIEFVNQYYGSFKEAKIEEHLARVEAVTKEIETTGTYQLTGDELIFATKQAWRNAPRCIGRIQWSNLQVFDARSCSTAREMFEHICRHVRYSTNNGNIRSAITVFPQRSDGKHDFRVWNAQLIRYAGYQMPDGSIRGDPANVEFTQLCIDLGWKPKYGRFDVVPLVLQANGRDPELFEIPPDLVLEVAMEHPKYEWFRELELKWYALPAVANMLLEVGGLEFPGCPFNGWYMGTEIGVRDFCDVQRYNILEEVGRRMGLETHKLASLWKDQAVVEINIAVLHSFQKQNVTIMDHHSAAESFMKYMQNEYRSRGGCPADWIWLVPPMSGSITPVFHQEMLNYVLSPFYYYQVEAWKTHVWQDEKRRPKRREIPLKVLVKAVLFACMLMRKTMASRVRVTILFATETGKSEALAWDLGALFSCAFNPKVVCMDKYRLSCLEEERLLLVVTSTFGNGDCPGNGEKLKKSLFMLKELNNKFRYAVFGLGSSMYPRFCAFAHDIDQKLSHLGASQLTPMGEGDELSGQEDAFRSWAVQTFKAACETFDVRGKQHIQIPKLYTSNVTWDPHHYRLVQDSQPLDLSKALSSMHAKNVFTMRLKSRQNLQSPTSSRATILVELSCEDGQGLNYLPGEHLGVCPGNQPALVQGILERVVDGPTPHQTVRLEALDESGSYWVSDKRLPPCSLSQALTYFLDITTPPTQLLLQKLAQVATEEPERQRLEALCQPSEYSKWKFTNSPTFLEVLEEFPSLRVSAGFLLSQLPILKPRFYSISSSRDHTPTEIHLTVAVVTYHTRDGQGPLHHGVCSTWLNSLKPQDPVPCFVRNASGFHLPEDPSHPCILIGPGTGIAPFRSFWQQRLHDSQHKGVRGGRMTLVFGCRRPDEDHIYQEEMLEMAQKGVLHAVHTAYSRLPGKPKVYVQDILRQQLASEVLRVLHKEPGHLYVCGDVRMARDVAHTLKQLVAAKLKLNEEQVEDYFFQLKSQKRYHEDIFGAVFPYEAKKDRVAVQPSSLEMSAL

[1] = test system: nitrite production in human cartilage explants; experiment: Human cartilage explant assay (nitrite production after IL-1β); assay type: cell-based; settings: inhibition of nitrite production, IL-1β-stimulated explants
Procedure: Human cartilage Explant Assay
Bone pieces are rinsed twice with Dulbecco's Phosphate Buffered Saline (GibcoBRL) and once with Dulbecco's Modified Eagles Medium (GibcoBRL) and placed into a petri dish with phenol red free Minimum Essential Medium (MEM) (GibcoBRL). Cartilage was cut into small explants of approximately 15-45 mg in weight and one or two explants per well are placed into either 96 or 48 well culture plates with 200-500 μL of culture media per well. The culture media was either a custom modification of Minimum Essential Medium(Eagle) with Earle's salts (GibcoBRL) prepared without L-Arginine, without L-Glutamine and without phenol red or a custom modification of serumless Neuman and Tytell (GibcoBRL) medium prepared without L-arginine, without insulin, without ascorbic acid, without L-glutamine and without phenol red. Both are supplemented before use with 100 μM L-Arginine (Sigma), 2 mM L-glutamine, 1×HL-1 supplement (BioWhittaker), […] ascorbic acid (Sigma) and 150 pg/ml recombinant human IL-1[…] (RD Systems) to induce nitric oxide synthase. Compounds are then added in 10 μL aliquots and the explants incubated at 37° C. with 5% CO2 for 18-24 hours. The day old supernatant is then discarded and replaced with fresh culture media containing recombinant human IL-1β and compound and incubated for another 20-24 hours. […] All samples are done in quadruplicate. Unstimulated controls are cultured in media in the absence of recombinant human IL-1β. IC50 values (Table I) are determined from plotting the percent inhibition of nitrite production at six different concentrations of inhibitor.

airway inflammation = settings: murine model of allergic asthma; by down-regulation of chemokine expression; cited from earlier work
[2] = test system: LPS-induced increase in plasma nitrite/nitrate levels; experiment: In vivo assay: endotoxin (LPS)-treated rats, plasma nitrite/nitrate; parameters: species or system rat; settings: oral administration, plasma nitrite/nitrate 5 hours post-treatment
Procedure: Plasma nitrite/nitrate levels can be determined 5 hours post-treatment.

[3] = Clinical study: tolerability, FEV1, blood pressure, heart rate, laboratory parameters; assay type: in vivo, human
Procedure: (§1) A single center study was performed at the National Heart and Lung Institute (NHLI) Clinical Studies Unit in London, UK. The clinical protocol was submitted and accepted by the Ethics Committee of the Royal Brompton Hospital Trust, and the study was carried out according to Good Clinical Practice standards. Each subject provided written informed consent.
(§2) Twenty-four, adult, healthy volunteers and 24 patients with mild asthma participated in this study. All subjects were lifelong non-smokers. Asthma patients (n=24) had mild asthma according to American Thoracic Society Criteria, with medication on an as required basis with inhaled albuterol only. […] All asthmatic patients had baseline exhaled breath NO levels of >15 parts per billion (ppb). Healthy control (n=24) subjects were matched for age and sex, and had no clinically significant disease. Healthy subjects were required to have baseline exhaled NO levels between 4 and 9 ppb.
The study included 2 panels of healthy volunteers and asthmatic patients who received in a double-blind, randomized manner, a single dose of oral compound NN or placebo. The study was carried out in two phases according to the dose of compound NN under investigation. The first panel consisted of patients with mild-to-moderate asthma (n=12) and healthy subjects (n=12) who received single doses of 20 mg of compound NN and placebo, while the second panel of mild-to-moderate asthmatics (n=12) and healthy subjects (n=12) received single doses of 200 mg of compound NN and placebo. No patient or subject participated in both panels of this study. Evaluation of the first panel was completed before moving on to the second panel. The study evaluated the tolerability and pharmacokinetics of orally-administered compound NN and monitored levels of exhaled breath NO.
Forced expiratory volume in 1 sec (FEV1) and heart rate data had no significant deviations from normality using the Shapiro-Wilks test, therefore parametric statistical methods were used, and the significance of the change from baseline was tested using a paired […]. […]

[4] = test system: exhaled breath nitric oxide (NO); experiment: Clinical study: exhaled breath NO after single oral dose; assay type: in vivo, human
Procedure: as §1, §2
The study included 2 panels of healthy volunteers and asthmatic patients who received in a double-blind, randomized manner, a single dose of oral compound NN or placebo. The study was carried out in two phases according to the dose of compound NN under investigation. […] The study evaluated the tolerability and pharmacokinetics of orally-administered compound NN and monitored levels of exhaled breath NO.
Measurement of exhaled NO: Exhaled NO was measured using a chemoluminescence analyzer (Logan 2000, Rochester, UK) and methods in accordance with International Guidelines. […] Two successive recordings were taken, and the average value was calculated.
Statistical methods for clinical data: Exhaled NO data, including change from baseline and the percentage change, were tested for normality using the Shapiro-Wilks test. […] The area under the curve (AUC) for the change from baseline and the percentage change, and the differences between active and placebo were calculated. […]

exhaled NO = settings: high doses, literature; cited from earlier work
[5] = Rattus norvegicus, read-out: ED50

| Compound | IC50 ([1]; Homo sapiens) [µM] | ED50 [2, 5] [mg/kg] | other results |
| --- | --- | --- | --- |
| 2S-amino-6-[(1-iminoethyl)amino]-N-(1H-tetrazol-5-yl) hexanamide, hydrate, dihydrochloride [Example NN] |  |  | selectivity compared with NIL amide or NIL dimethylamide (i-NOS): more selective |
| CC(=N)NCC(F)=CCC[C@H](N)C(=O)O (mixture of isomers) [Example B, (2S,5E/Z)-2-amino-6-fluoro-7-[(1-iminoethyl)amino]-5-heptenoic acid, Dihydrochloride] | 0.2 |  |  |
| CC1CCN=C(N)S1 (stereo not shown) [2-amino 5,6-dihydro 6-methyl 4H-1,3-thiazine] |  |  | effect on airway inflammation (airway inflammation): suppressed airway inflammation |
| CC(=N)NC/C(F)=C\CC[C@H](N)C(=O)O [Example A, (2S,5E)-2-amino-6-fluoro-7-[(1-iminoethyl)amino]-5-heptenoic acid, dihydrochloride, monohydrate] | 0.1 | < 0.1 | ED50 ([2]; dihydrochloride, monohydrate): <0.1 mg/kg |
| CC(=N)NC/C(F)=C/CC[C@H](N)C(=O)O [Example D, (2S,5Z)-2-amino-6-fluoro-7-[(1-iminoethyl)amino]-5-heptenoic acid, trihydrochloride, dihydrate] | 2.5 | > 10 |  |
| CC(=NO)NC/C(F)=C\CC[C@H](N)C(=O)O [Example G, (2S,5E)-2-amino-6-fluoro-7-[(1-hydroximinoethyl)amino]-5-heptenoic acid] |  | < 0.1 | melting point: 198 to 200 °C |
| CC(=N)NC/C(F)=C\CC[C@H](N)C(=O)Nc1nnn[nH]1 [Example H, (2S,5E)-2-amino-6-fluoro-7-[(1-iminoethyl)amino]-N-(1H-tetrazol-5-yl) 5-heptenamide, Dihydrochloride] |  | < 0.3 |  |
| CC(=N)NC/C(F)=C\CC[C@](C)(N)C(=O)O [Example HH, (2S,5E)-2-amino-2-methyl-6-fluoro-7-[(1-iminoethyl)amino]-5-heptenoic acid, Dihydrochloride] | 0.4 | 0.4 |  |
| COC[C@](N)(CSCCNC(C)=N)C(=O)O [Example J, 2-[[[2-[(1-Iminoethyl)amino]ethyl]thio]methyl]-O-methyl-D-serine, Dihydrochloride] |  |  | IC50 [1]: 8.2 µM |
| CC(=N)NC/C=C\CC[C@](C)(N)C(=O)O.Cl.Cl [Example LL, (2S,5Z)-2-amino-2-methyl-7-[(1-iminoethyl)amino]-5-heptenoic acid, Dihydrochloride] | 0.8 | 0.3 |  |
| CC(=N)NCCCC[C@H](N)C(=O)Nc1nnn[nH]1 [Example NN, 2S-amino-6-[(1-iminoethyl)amino]-N-(1H-tetrazol-5-yl) hexanamide, hydrate, dihydrochloride] |  |  | effects on heart rate, blood pressure and FEV1 ([3]; 200 mg oral, FIG. 4): no apparent effects; effect on haematology or blood biochemistry ([3]; single oral dose): no effect; tolerability ([3]; single oral dose, healthy volunteers and asthmatics, FIG. 4): well tolerated; i-NOS inhibitory potency compared with NIL amide or NIL dimethylamide (i-NOS): more potent; change in exhaled NO ([4]; 20 mg and 200 mg single oral doses, healthy volunteers and asthmatics, 72 hour assessment, FIG. 3, hydrate, dihydrochloride): rapid reduction in exhaled NO; also recorded: of rapid onset and dose-related; inhibition of exhaled NO ([4]; 200 mg single oral dose, asthma): 95%; duration of decrease in exhaled breath NO ([4]; single oral dose, healthy volunteers and asthmatics): 3 days |
| N=C1CCCC[C@H](CCCC[C@@H](N)C(=O)O)N1 [Example V, (α,2S)-.α-aminohexahydro-7-imino-1H-azepine-2-hexanoic acid, Trihydrate Hydrochloride] | < 10 | < 3 |  |
| N=C1CCCC[C@@H](CCCC[C@H](N)C(=O)O)N1 [Example W, (αS,2R)-α-aminohexahydro-7-imino-1 H-azepine-2-hexanoic acid, Trihydrate Hydrochloride] | > 30 | > 10 |  |
| N=C1CCCC[C@H](CCCC[C@H](N)C(=O)O)N1 [Example X, (αS,2S)-α-aminohexahydro-7-imino-1H-azepine-2-hexanoic acid, Trihydrate Hydrochloride] |  |  | IC50 [1]: < 10 µM |
| Cl.N=C1CCCC[C@H](CCCC[C@@H](N)C(=O)O)N1.O.O.O [Example Y, (αR,2S)-α-aminohexahydro-7-imino-1H-azepine-2-hexanoic acid, Trihydrate Hydrochloride] |  | < 3 |  |
| N=C1CCCC[C@H](CCCC[C@H](N)C(=O)O)N1 [Example Z, (αS,2S)-α-aminohexahydro-7-imino-1H-azepine-2-hexanoic acid, Trihydrate Hydrochloride] | < 10 |  |  |
| COC(=O)[C@@H](N)CCCNC(=N)N[N+](=O)[O-] [L-NAME] |  |  | effect on airway inflammation (airway inflammation): suppressed airway inflammation; inhibition of exhaled NO (exhaled NO): approximately 70% |
| CCSC(=N)N [S-ethylisothiourea] |  |  | effect on airway inflammation (airway inflammation): suppressed airway inflammation |
| N=C(N)NN [amino-guanidine] |  |  | inhibition of exhaled NO (exhaled NO): approximately 70% |
